Measurements as given in US20220267479A1, “POLYIODIDE BINDING COMPOUNDS AND METHODS OF USE THEREOF” (North Carolina State University, priority 2019, published 2022).
“And” between values parts separate entries of the source, which are not always exact repeats. Identical values can stand only once. Marks after values point to notes of the source that are not given here.

Experiments:
Type in all cases: biochemical
[1] = target: T1, β-glucosidase from Agrobacterium (Agrobacterium sp., UniProt P12614); test: Enzyme-triggered oligomerization of bis(indoxyl-glucoside) 46
T1 construct: purchased Megazyme; host or cells: recombinant
T1 sequence (P12614 1-459): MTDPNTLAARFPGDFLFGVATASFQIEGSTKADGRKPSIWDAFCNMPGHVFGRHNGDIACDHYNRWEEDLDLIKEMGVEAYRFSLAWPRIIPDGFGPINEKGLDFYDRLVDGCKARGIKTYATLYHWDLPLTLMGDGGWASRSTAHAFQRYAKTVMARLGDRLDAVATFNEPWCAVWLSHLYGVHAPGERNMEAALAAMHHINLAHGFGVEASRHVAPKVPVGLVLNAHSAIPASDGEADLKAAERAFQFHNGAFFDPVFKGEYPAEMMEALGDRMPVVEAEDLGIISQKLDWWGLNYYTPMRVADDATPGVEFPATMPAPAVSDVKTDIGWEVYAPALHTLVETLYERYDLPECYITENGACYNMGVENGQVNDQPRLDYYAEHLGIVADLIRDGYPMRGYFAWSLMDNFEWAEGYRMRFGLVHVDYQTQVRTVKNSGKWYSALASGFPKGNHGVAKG
Experimental: Oligomerization of 46 was carried out by treatment with β-glucosidase from Agrobacterium (200 nM) in 10 mM phosphate buffer (pH 7) at 37° C. for 2-4 h (Scheme 9). Precipitation occurred during the reaction. After centrifugation, the precipitate was separated from the supernatant, washed with H2O, and dried to afford a blue solid.
The efficacy of the indigogenic oligomerization was examined under a variety of conditions. As shown in entries 1-4 in Table 2, the yield of indigoid dye in the supernatant versus precipitate reversed as the concentration of 46 was decreased from 300 to 10 μM, although the total yields were in the range 17-29%. While the reactions in entries 1-4 were carried out in phosphate buffer containing NaCl (0.05 M), those of entries 5 and 6 (with 300 and 50 μM of 46, respectively) were conducted in NaCl-free phosphate buffer. The use of NaCl-free phosphate buffer facilitated extraction of the indigoid dye in the supernatant for analysis.

[2] = target: T1, β-glucosidase from Agrobacterium; test: Indigogenic reaction with β-glucosidase from Agrobacterium
Experimental: Next, the β-glucosidase from Agrobacterium sp. was investigated as the trigger enzyme for indigoid dye formation. […]
Reactions with β-glucosidase from Agrobacterium. An indoxyl compound in DMF (2 μL, 5 mM) and β-glucosidase from Agrobacterium in 10 mM phosphate buffer [2 μL, 10 μM, pH 7.0, containing 50 mM NaCl and 0.6 M (NH4)2SO4] were mixed with 50 mM phosphate buffer (96 μL, pH 7.0). The reaction mixture was incubated at 37° C. for 2 h and then centrifuged for 3 min. Any precipitate was separated from the supernatant and dissolved in DMF (200 μL). The resulting solution was analyzed by absorption spectroscopy. The experiment was repeated three times.

[3] = system: β-glucosidase from almonds; test: Indigogenic reaction with β-glucosidase from almonds
Excerpt: With diverse glucosyl-indoxyl compounds in hand, we carried out a set of studies to examine indigoid-dye formation upon enzymatic cleavage of the glucosyl unit under physiological conditions. Altogether, 14 new (15, 16, 19-27, 30, 33, 41) and 2 known (1, 42) synthetic indoxyl-glucosides (lacking acetyl protecting groups) were examined in an effort to identify suitable combinations of substituents to support both bioconjugation and indigoid dye formation. In initial studies, β-glucosidase from almonds was employed to trigger indigoid dye formation (Table 1). Thus, a mixture of this enzyme (1 unit/mL) and an indoxyl β-glucoside (0.1 μmol, 1 mM) in acetate buffer (pH 5, containing 5% DMF) was incubated at 37° C. for 16-19 h. All indigoid dye was dissolved in each case for quantitative evaluation.
Reactions with β-glucosidase from almonds. An indoxyl compound in DMF (5 μL, 20 mM) and β-glucosidase from almonds in H2O (10 μL, 10 units/mL) were mixed with acetate buffer (85 μL, 50 mM, pH 5.0). The reaction mixture was incubated at 37° C. for 16-19 h and then allowed to cool to room temperature. DMF (300 μL for the reactions of 15, 16, 1, 19, 22, and 25; or 900 μL for the reactions of 42, 20, 21, 23, 24, 26, 27, 30, and 31, respectively) was added to dissolve any indigoid precipitate. The resulting solution was analyzed by absorption spectroscopy.

rat liver homogenate = test: Indigoid-dye formation in rat liver homogenate; conditions: indoxyl 1 mM, 5% DMF, 37° C., 24 h; ε = 1.27 × 10^4 M^-1 cm^-1
Experimental: Finally, indigoid-dye formation was carried out in rat liver homogenate (Table 1, rightmost column).
Reactions in rat liver homogenate. An indoxyl compound in DMF (5 μL, 20 mM) was mixed with rat liver homogenate (95 μL). The reaction mixture was incubated at 37° C. for 24 h. After allowing to cool to room temperature, the reaction mixture was diluted with DMF (900 μL). The mixture was heated at 70° C. for 2 min and then centrifuged for 2 min. The supernatant was separated from any precipitate. This extraction procedure was repeated two or three times with DMF (100-500 μL). The combined supernatant (1500-1800 μL) was analyzed by absorption spectroscopy.

tritosomes = test: Indigoid dye formation with tritosomes
Experimental: The results from the glucosidase survey prompted several further experiments. First, a parallel set of studies was carried out with inclusion of several oxidants commonly employed in histochemical studies, given that the indigoid dye forming process requires the presence of an oxidant. […] The activity of the β-glucosidase was affected only slightly in the presence of a non-ionic detergent. To verify that the results observed in Table 1 were reliable, a 5-mg scale reaction of 33 was carried out to isolate indigo 43, which was obtained in 66% yield (Scheme 7). The 66% isolated yield corresponded well with the enzymatic yield of […] (Table 1, entry 15).
General methods. β-Glucosidase from almonds (lyophilized powder, >2 units/mg solid) and peroxidase from horseradish were purchased from Sigma-Aldrich. O-Glucosidase from Agrobacterium sp. (recombinant, suspension in 3.2 M (NH4)2SO4) was purchased from Megazyme; the concentration in solution was determined by absorption spectroscopy with E^0.1%32 2.20 cm^−1 at 280 nm.^37 Tritosomes were purchased from XenoTech. Rat liver homogenate was purchased from MP Biomedicals.

[4] = entry 1: [46] 300 μM, 2 h, phosphate buffer containing NaCl (0.05M)
[5] = entry 2: [46] 100 μM, 3 h, phosphate buffer containing NaCl (0.05M)
[6] = entry 3: [46] 50 μM, 2 h, phosphate buffer containing NaCl (0.05M), repeated three times
[7] = entry 4: [46] 10 μM, 4 h, phosphate buffer containing NaCl (0.05M)
[8] = entry 5: [46] 300 μM, 3 h, NaCl-free phosphate buffer containing DMF (0.1-0.6%)
[9] = entry 6: [46] 50 μM, 3 h, NaCl-free phosphate buffer containing DMF (0.1-0.6%)
[10] = as E4 but ε = 2.6 × 10^4 M^-1 cm^-1 measured for 43
[11] = indoxyl 100 μM, enzyme 200 nM, 0.05 M phosphate buffer pH 7.0, 2% DMF, 37° C., 2 h, n=3, ε = 1.27 × 10^4 M^-1 cm^-1
[12] = as E1 but ε = 2.6 × 10^4 M^-1 cm^-1 measured for 43
[13] = indoxyl 1 mM, enzyme 1 unit/mL, acetate buffer pH 5, 5% DMF, 37° C., 16-19 h, ε = 1.27 × 10^4 M^-1 cm^-1 (measured for 4)

| Compound | Yield (%) β-glucosidase from Agrobacterium [2, 10] | Yield (%) β-glucosidase from Agrobacterium [2, 11] [%] | Yield (%) β-glucosidase from almonds [3, 13] [%] | Yield (%) rat liver homogenate (rat liver homogenate) [%] | further results |
| --- | --- | --- | --- | --- | --- |
| O=S(=O)([O-])CCC[N+]1(CCCO)CCN(c2nc(OCCOCCOCCOc3c(Br)cc4[nH]cc(O[C@@H]5O[C@H](CO)[C@@H](O)[C@H](O)[C@H]5O)c4c3Br)nc(OCCOCCOCCOc3c(Br)cc4[nH]cc(O[C@@H]5O[C@H](CO)[C@@H](O)[C@H](O)[C@H]5O)c4c3Br)n2)CC1 [Indoxyl 46] | – | – | – | – | Total yields of indigoid dye (supernatant plus precipitate) ([1]; entries 1-4, [46] 300 to 10 μM): 17-29%; Yield of indigoid dye (%) precipitate [1, 4]: 11%; Yield of indigoid dye (%) supernatant [1, 4]: 6%; Yield of indigoid dye (%) precipitate [1, 5]: 14%; Yield of indigoid dye (%) supernatant [1, 5]: 10%; Yield of indigoid dye (%) precipitate [1, 6]: 16 ± 0.6^c %; Yield of indigoid dye (%) supernatant [1, 6]: 13 ± 0.4^c %; Yield of indigoid dye (%) precipitate [1, 7]: 6%; Yield of indigoid dye (%) supernatant [1, 7]: 22%; Yield of indigoid dye (%) precipitate [1, 8]: 13%; Yield of indigoid dye (%) supernatant [1, 8]: 13%; Yield of indigoid dye (%) precipitate [1, 9]: 8%; Yield of indigoid dye (%) supernatant [1, 9]: 19% |
| C#CCOc1c(Br)cc2[nH]cc(O[C@@H]3O[C@H](CO)[C@@H](O)[C@H](O)[C@H]3O)c2c1Br [Indoxyl 27, 4,6-Dibromo-5-propargyloxy-1H-indol-3-yl β-D-glucopyranoside] | 89 ± 2% | 184 ± 3 | 105 | 50 | Yield (%) β-glucosidase from almonds [3, 12]: 51% |
| C#CCOc1ccc2[nH]cc(O[C@@H]3O[C@H](CO)[C@@H](O)[C@H](O)[C@H]3O)c2c1Br [Indoxyl 26, 4-Bromo-5-propargyloxy-1H-indol-3-yl β-D-glucopyranoside] | – | 79 ± 1 | 56 | 17 | – |
| 5-bromo-4-chloroindoxyl β-glucoside [Indoxyl 42, reference compound] | – | – | – | 65 | Yield (%) β-glucosidase from Agrobacterium ([2]; as E4 but ε = 2.00 × 10^4 M^-1 cm^-1 reported for 5,5′-dibromo-4,4′-dichloroindigo): 116% and 116 ± 8^e %; Yield (%) β-glucosidase from almonds ([3]; as E1 but ε = 2.00 × 10^4 M^-1 cm^-1 reported for 5,5′-dibromo-4,4′-dichloroindigo): 74% and 74^e % |
| COC(=O)COc1ccc2[nH]cc(O[C@@H]3O[C@H](CO)[C@@H](O)[C@H](O)[C@H]3O)c2c1Br [Indoxyl 23, 4-Bromo-5-(methoxycarbonyl)methoxy-1H-indol-3-yl β-D-glucopyranoside] | – | 84 ± 4 | 68 | <5 | – |
| OC[C@H]1O[C@@H](Oc2c[nH]c3cc(Br)c(OCC4[C@H]5CCC#CCC[C@@H]45)c(Br)c23)[C@H](O)[C@@H](O)[C@@H]1O (stereo partly drawn) [Indoxyl 30, 5-{[(1R,8S,9s)-Bicyclo[6.1.0]non-4-yn-9-yl]methoxy}-4,6-dibromo-1H-indole-3-yl β-D-glucopyranoside] | 10% and 10 ± 0.4% | 21 ± 1 | – | – | – |
| C#CCOc1ccc2[nH]cc(O[C@@H]3O[C@H](CO)[C@@H](O)[C@H](O)[C@H]3O)c2c1 [Indoxyl 25, 5-Propargyloxy-1H-indol-3-yl β-D-glucopyranoside] | – | 37 ± 2 | <5 | 11 | – |
| 5-[(Benzylcarbamoyl)oxy)]-1H-indole-3-yl β-D-glucopyranoside [Indoxyl 16] | – | – | – | 9 | Indigoid dye formation with tritosomes (tritosomes): low yield of indigoid dye |
| COc1nc(Oc2c(Br)cc3[nH]cc(O[C@@H]4O[C@H](CO)[C@@H](O)[C@H](O)[C@H]4O)c3c2Br)nc(N2CCOCC2)n1 [Indoxyl 21, 4,6-Dibromo-5-[(4-methoxy-6-morpholino-1,3,5-triazin-2-yl)oxy]-1H-indole-3-yl β-D-glucopyranoside] | 31 ± 2% | 63 ± 4 | – | <5 | – |
| COc1nc(Oc2ccc3[nH]cc(O[C@@H]4O[C@H](CO)[C@@H](O)[C@H](O)[C@H]4O)c3c2Br)nc(N2CCOCC2)n1 [Indoxyl 20, 4-Bromo-5-[(4-methoxy-6-morpholino-1,3,5-triazin-2-yl)oxy]-1H-indole-3-yl β-D-glucopyranoside] | – | 150 ± 3 | – | <5 | – |
| COC(=O)COc1c(Br)cc2[nH]cc(O[C@@H]3O[C@H](CO)[C@@H](O)[C@H](O)[C@H]3O)c2c1Br [Indoxyl 24, 4,6-Dibromo-5-(methoxycarbonyl)methoxy-1H-indol-3-yl β-D-glucopyranoside] | 102 ± 3% | 209 ± 6 | 122 | <5 | Yield (%) β-glucosidase from almonds [3, 12]: 59% |
| COC(=O)COc1ccc2[nH]cc(O[C@@H]3O[C@H](CO)[C@@H](O)[C@H](O)[C@H]3O)c2c1 [Indoxyl 22, 5-(Methoxycarbonyl)methoxy-1H-indol-3-yl β-D-glucopyranoside] | – | 30 ± 6 | <1 | <5 | – |
